Experimental findings from patent US5728724A, “Benzothiophene compounds” (Eli Lilly and Company, priority 1996, dated 1998) are described below.

In assay [1] the test system is uterus of ovariectomized (OVX) rats. The experiment in a line: Uterine weight in ovariectomized rats (post-menopausal model, agonist activity). In kind it is in vivo, Sprague Dawley rats. As for the experimental part: (§1) In the examples illustrating the methods, a post-menopausal model was used in which effects of different treatments upon circulating lipids were determined.
(§2) Seventy-five day old female Sprague Dawley rats (weight range of 200 to 225g) were obtained from Charles River Laboratories (Portage, Mich.). The animals were either bilaterally ovariectomized (OVX) or exposed to a Sham surgical procedure at Charles River Laboratories, and then shipped after one week. Upon arrival, they were housed in metal hanging cages in groups of 3 or 4 per cage and had ad libitum access to food calcium content approximately 0.5%) and water for one week. Room temperature was maintained at 22.2°±1.7° C. with a minimum relative humidity of 40%. The photoperiod in the room was 12 hours light and 12 hours dark.
(§3) Dosing Regimen Tissue Collection. After a one week acclimation period (therefore, two weeks post-OVX) daily dosing with test compound was initiated. […] Animals were dosed daily for 4 days. Following the dosing regimen, animals were weighed and anesthetized with a ketamine: Xylazine (2:1, V:V) mixture and a blood sample was collected by cardiac puncture. The animals were then sacrificed by asphyxiation with CO2, the uterus was removed through a midline incision, and a wet uterine weight was determined.

The test system of assay [2] is Uterine Eosinophil Peroxidase (EPO). Nature of the assay: Uterine Eosinophil Peroxidase (EPO) Assay in ovariectomized rats. In kind it is in vivo, Sprague Dawley rats. Details: key: max velocity of A450 increase over a 15 s interval. The settings on record: oral, daily for 4 days, OVX rats. As for the experimental part:
as §1, §2, §3
Uterine Eosinophil Peroxidase (EPO) Assay. Uteri were kept at 4° C. until time of enzymatic analysis. The uteri were then homogenized in 50 volumes of 50 mM Tris buffer (pH-8.0) containing 0.005% Triton X-100. Upon addition of 0.01% hydrogen peroxide and 10 mM O-phenylenediamine (final concentrations) in Tris buffer, increase in absorbance was monitored for one minute at 450 nm. The presence of eosonophils in the uterus is an indication of estrogenic activity of a compound. The maximal velocity of a 15 second interval was determined over the initial, linear portion of the reaction curve.

The subject of the next assay is Serum Cholesterol. The experiment in a line: Serum cholesterol analysis in ovariectomized rats. Format: in vivo, Sprague Dawley rats. The settings on record: OVX rats. Here is the method:
as §1, §2, §3
Cholesterol Analysis. Blood samples were allowed to clot at room temperature for 2 hours, and serum was obtained following centrifugation for 10 minutes at 3000 rpm. Serum cholesterol was determined using a Boehringer Mannheim Diagnostics high performance cholesterol assay. Briefly the cholesterol was oxidized to cholest-4-en-3-one and hydrogen peroxide. The hydrogen peroxide was then reacted with phenol and 4-aminophenazone in the presence of peroxidase to produce a p-quinone imine dye, which was read spectrophotemetrically at 500 nm. Cholesterol concentration was then calculated against a standard curve. The entire assay was automated using a Biomek Automated Workstation.

Assay [3] has as its system femur density of ovariectomized rats. Nature of the assay: Osteoporosis Test (bone density of ovariectomized rats). Format: in vivo, Sprague Dawley rats. The settings on record: OVX rats, daily for 35 days. An excerpt: Following the General Preparation Procedure, infra, the rats or treated daily for 35 days (6 rats per treatment group) and sacrificed by carbon dioxide asphyxiation on the 36th day. The 35 day time period is sufficient to allow maximal reduction in bone density, measured as described herein. At the time of sacrifice, the uteri are removed, dissected free of extraneous tissue, and the fluid contents are expelled before determination of wet weight in order to confirm estrogen deficiency associated with complete ovariectomy. […] The uteri are then placed in 10% neutral buffered formalin to allow for subsequent histological analysis. The right femurs are excised and digitilized x-rays generated and analyzed by an image analysis program (NIH image) at the distal metaphysis. The proximal aspect of the tibiae from these animals are also scanned by quantitative computed tomography. In general, ovariectomy of test animals will cause a significant reduction in femur density compared to intact, vehicle treated controls.

The test system of assay [4] is MCF-7 breast adenocarcinoma cells. Nature of the assay: MCF-7 Proliferation Assay (tritiated thymidine). The settings on record: Homo sapiens, MCF7; 48 hours, tritiated thymidine incorporation. In kind it is cell-based. As for the experimental part: MCF-7 breast adenocarcinoma cells (ATCC HTB 22) were maintained in MEM (minimal essential medium, phenol red-free, Sigma, St. Louis, Mo.) supplimented with 10% fetal bovine serum (FBS) (V/V), L-glutamine (2 mM), sodium pyruvate (1 mM), HEPES {(N-[2-hydroxyethyl]piperazine-N'-[2-ethanesulfonic acid]10 mM}, non-essential amino acids and bovine insulin (1 ug/mL) (maintenance medium). Ten days prior to assay, MCF-7 cells were switched to maintenance medium supplemented with 10% dextran coated charcoal stripped fetal bovine serum (DCC-FBS) assay medium) in place of 10% FBS to deplete internal stores of steroids. MCF-7 cells were removed from maintenance flasks using cell dissociation medium (Ca++/Mg++ free HBSS (phenol red-free) supplemented with 10 mM HEPES and 2 mM EDTA). Cells were washed twice with assay medium and adjusted to 80,000 cells/mL. Approximately 100 μL (8,000 cells) were added to flat-bottom microculture wells (Costar 3596) and incubated at 37° C. in a 5% CO2 humidified incubator for 48 hours to allow for cell adherence and equilibration after transfer. Serial dilutions of drugs or DMSO as a diluent control were prepared in assay medium and 50 μL transferred to triplicate microcultures followed by 50 μL assay medium for a final volume of 200 μL. After an additional 48 hours at 37° C. in a 5% CO2 humidified incubator, microcultures were pulsed with tritiated thymidine (1 uCi/well) for 4 hours. Cultures were terminated by freezing at -70° C. for 24 hours followed by thawing and harvesting of microcultures using a Skatron Semiautomatic Cell Harvester. Samples were counted by liquid scintillation using a Wallac BetaPlace β counter. Results in Table 2 below show the IC50 for certain compounds of the present invention.
A general note: Dividing cells build labelled thymidine or BrdU into new DNA.

The mark [5] stands for this setting: Rattus norvegicus, po, 96 h, daily for 4 days, read-out: Uterine Weight (% increase vs. OVX).
[6] abbreviates: Rattus norvegicus, po, 96 h, daily for 4 days, read-out: Serum Cholesterol (% decrease vs. OVX).

Take `C#C[C@]1(O)CC[C@H]2[C@@H]3CCc4cc(O)ccc4[C@H]3CC[C@@]21C` [EE2, 17α-ethynyl estradiol, reference compound]: the change in vivo at 0.1 mg/kg in assay [1] (setting [5]) stood at 86.3%. Further, the “Uterine weight / uterine stimulation, result in words” value in assay [1] (oral, EE2 at 0.1 mg/kg/day) is on record as “exerted a stimulatory action on the uterus so that EE2 uterine weight was substantially greater than the uterine weight of ovariectomized test animals”. The “Uterine EPO (V. max)” value in assay [2] (0.1 mg/kg) came to 116.4. Moreover, in the assay with Serum Cholesterol (setting [6]), the inhibition in vivo at 0.1 mg/kg was 81.4%. For the same compound, the “Serum cholesterol, result in words” value in the assay on Serum Cholesterol (oral, EE2 at 0.1 mg/kg/day) is listed as “caused a decrease in serum cholesterol”. The “Prevention of bone loss after ovariectomy, result in words” value in assay [3] is “usually prevents this loss”.

For orientation: IC50 means the midpoint of a concentration-inhibition curve. `O=C(c1ccc(OCCN2CCCCC2)cc1)c1c(Cc2ccc(O)cc2)sc2cc(O)ccc12` [Example 11, [2-(4-Hydroxyphenyl)methyl-6-hydroxybenzothien-3-yl][4-[2-(1-piperdinyl)ethoxy]phenyl]methanone]: the change in vivo at 0.01 mg/kg in assay [1] (Rattus norvegicus, po, 96 h, 0.01 mg/kg, daily for 4 days, read-out: Uterine Weight (% increase vs. OVX)) came out at 77.9%. In assay [1] (setting [5]), the change in vivo at 0.1 mg/kg came out at 80.5%. In addition, the change in vivo at 1 mg/kg in assay [1] (Rattus norvegicus, po, 96 h, 1.0 mg/kg, daily for 4 days, read-out: Uterine Weight (% increase vs. OVX)) was determined as 44.6%. The change in vivo at 10 mg/kg in assay [1] (Rattus norvegicus, po, 96 h, 10.0 mg/kg, daily for 4 days, read-out: Uterine Weight (% increase vs. OVX)) turned out to be 46.9%. In addition, the “Uterine EPO (V. max)” value in assay [2] (0.01 mg/kg) is reported as 33.0; in assay [2] (0.1 mg/kg) it was 16.5; in assay [2] (1.0 mg/kg) it was 18.9; in assay [2] (10.0 mg/kg), 40.5. Also, the inhibition in vivo at 0.01 mg/kg in the assay with Serum Cholesterol (Rattus norvegicus, po, 96 h, 0.01 mg/kg, daily for 4 days, read-out: Serum Cholesterol (% decrease vs. OVX)) came to 41%. Moreover, in the assay on Serum Cholesterol (setting [6]), the inhibition in vivo at 0.1 mg/kg is 43%. In addition, the inhibition in vivo at 1 mg/kg with Serum Cholesterol (Rattus norvegicus, po, 96 h, 1.0 mg/kg, daily for 4 days, read-out: Serum Cholesterol (% decrease vs. OVX)) worked out at 35.3%. Besides, the inhibition in vivo at 10 mg/kg in the assay with Serum Cholesterol (Rattus norvegicus, po, 96 h, 10.0 mg/kg, daily for 4 days, read-out: Serum Cholesterol (% decrease vs. OVX)) worked out at 68.3%. This compound also registered an IC50 in assay [4] of 5 nM.
